Tests used:
Assay in all cases: relative viability (nuclei count vs DMSO), 5 days (fraction); higher = more cells survive
BEN = system: BEN
Method in brief: (§1)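 For relative viability, nuclei counts in treated wells were divided by those in vehicle wells. Lung cancer cell lines had been pin-tool dosed in 1536-well plates the day after seeding and cultured for 5 days, then fixed and stained in one step (final 0.05% Triton X-100, 1% formaldehyde, 1 ug/ml Hoechst) and imaged at 4×. Doses were one drug alone or a fixed anchor-drug dose plus five library-drug doses (not always all listed) in √10 steps, and values are duplicate-plate medians.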

EMC-BAC-2 = system: EMC-BAC-2
Method in brief: as §1

HCC-366 = system: HCC-366
Method in brief: as §1

HCC-78 = system: HCC-78
Method in brief: as §1

LC-2-ad = system: LC-2-ad
Method in brief: as §1

LXF-289 = system: LXF-289
Method in brief: as §1

NCI-H1563 = system: NCI-H1563
Method in brief: as §1

NCI-H1623 = system: NCI-H1623
Method in brief: as §1

NCI-H1650 = system: NCI-H1650
Method in brief: as §1

NCI-H1666 = system: NCI-H1666
Method in brief: as §1

NCI-H1915 = system: NCI-H1915
Method in brief: as §1

NCI-H1944 = system: NCI-H1944
Method in brief: as §1

NCI-H1993 = system: NCI-H1993
Method in brief: as §1

NCI-H2085 = system: NCI-H2085
Method in brief: as §1

NCI-H2087 = system: NCI-H2087
Method in brief: as §1

NCI-H2170 = system: NCI-H2170
Method in brief: as §1

NCI-H2228 = system: NCI-H2228
Method in brief: as §1

NCI-H2347 = system: NCI-H2347
Method in brief: as §1

NCI-H358 = system: NCI-H358
Method in brief: as §1

NCI-H650 = system: NCI-H650
Method in brief: as §1

NCI-H727 = system: NCI-H727
Method in brief: as §1

PC-14 = system: PC-14
Method in brief: as §1

RERF-LC-KJ = system: RERF-LC-KJ
Method in brief: as §1

SW 900 = system: SW 900
Method in brief: as §1

## Nc1cccc2c1CN(C1CCC(=O)NC1=O)C2=O (stereo unspecified) [Lenalidomide] + COc1cccc2cc(-c3nc([C@H]4CC[C@H](C(=O)O)CC4)n4ncnc(N)c34)[nH]c12 [OSI-027] (partner 0.5 µM)
BEN; first compound 0.253 µM
  relative viability: 0.331
BEN; first compound 0.8 µM
  relative viability: 0.295
BEN; first compound 2.53 µM
  relative viability: 0.316
BEN; first compound 8 µM
  relative viability: 0.3
EMC-BAC-2; first compound 0.253 µM
  relative viability: 0.38
EMC-BAC-2; first compound 0.8 µM
  relative viability: 0.349
EMC-BAC-2; first compound 2.53 µM
  relative viability: 0.393
EMC-BAC-2; first compound 8 µM
  relative viability: 0.344
HCC-366; first compound 0.253 µM
  relative viability: 1.02
HCC-366; first compound 0.8 µM
  relative viability: 0.709
HCC-366; first compound 2.53 µM
  relative viability: 1.01
HCC-366; first compound 8 µM
  relative viability: 0.747
HCC-78; first compound 0.253 µM
  relative viability: 0.418
HCC-78; first compound 0.8 µM
  relative viability: 0.35
HCC-78; first compound 2.53 µM
  relative viability: 0.376
HCC-78; first compound 8 µM
  relative viability: 0.382
LC-2-ad; first compound 0.253 µM
  relative viability: 0.856
LC-2-ad; first compound 2.53 µM
  relative viability: 0.912
LC-2-ad; first compound 8 µM
  relative viability: 0.887
LXF-289; first compound 0.253 µM
  relative viability: 0.832
LXF-289; first compound 0.8 µM
  relative viability: 0.823
LXF-289; first compound 2.53 µM
  relative viability: 0.871
LXF-289; first compound 8 µM
  relative viability: 0.772
NCI-H1563; first compound 0.253 µM
  relative viability: 0.751
NCI-H1563; first compound 0.8 µM
  relative viability: 0.8
NCI-H1563; first compound 2.53 µM
  relative viability: 0.804
NCI-H1563; first compound 8 µM
  relative viability: 0.72
NCI-H1623; first compound 0.253 µM
  relative viability: 0.433
NCI-H1623; first compound 0.8 µM
  relative viability: 0.418
NCI-H1623; first compound 2.53 µM
  relative viability: 0.375
NCI-H1623; first compound 8 µM
  relative viability: 0.392
NCI-H1650; first compound 0.8 µM
  relative viability: 0.546
NCI-H1650; first compound 2.53 µM
  relative viability: 0.722
NCI-H1650; first compound 8 µM
  relative viability: 0.656
NCI-H1666; first compound 0.253 µM
  relative viability: 0.822
NCI-H1666; first compound 2.53 µM
  relative viability: 0.927
NCI-H1666; first compound 8 µM
  relative viability: 0.894
NCI-H1915; first compound 0.253 µM
  relative viability: 0.61
NCI-H1915; first compound 0.8 µM
  relative viability: 0.653
NCI-H1915; first compound 2.53 µM
  relative viability: 0.646
NCI-H1915; first compound 8 µM
  relative viability: 0.615
NCI-H1944; first compound 0.253 µM
  relative viability: 0.412
NCI-H1944; first compound 0.8 µM
  relative viability: 0.372
NCI-H1944; first compound 2.53 µM
  relative viability: 0.491
NCI-H1944; first compound 8 µM
  relative viability: 0.36
NCI-H1993; first compound 0.253 µM
  relative viability: 0.401
NCI-H1993; first compound 0.8 µM
  relative viability: 0.572
NCI-H1993; first compound 2.53 µM
  relative viability: 0.593
NCI-H1993; first compound 8 µM
  relative viability: 0.607
NCI-H2085; first compound 0.253 µM
  relative viability: 0.818
NCI-H2085; first compound 0.8 µM
  relative viability: 0.518
NCI-H2085; first compound 2.53 µM
  relative viability: 0.879
NCI-H2085; first compound 8 µM
  relative viability: 0.784
NCI-H2087; first compound 0.253 µM
  relative viability: 0.679
NCI-H2087; first compound 0.8 µM
  relative viability: 0.501
NCI-H2087; first compound 2.53 µM
  relative viability: 0.521
NCI-H2087; first compound 8 µM
  relative viability: 0.712
NCI-H2170; first compound 0.253 µM
  relative viability: 0.691
NCI-H2170; first compound 0.8 µM
  relative viability: 0.612
NCI-H2170; first compound 2.53 µM
  relative viability: 0.817
NCI-H2170; first compound 8 µM
  relative viability: 0.588
NCI-H2228; first compound 0.253 µM
  relative viability: 0.568
NCI-H2228; first compound 0.8 µM
  relative viability: 0.641
NCI-H2228; first compound 2.53 µM
  relative viability: 0.672
NCI-H2228; first compound 8 µM
  relative viability: 0.473
NCI-H2347; first compound 0.253 µM
  relative viability: 0.44
NCI-H2347; first compound 0.8 µM
  relative viability: 0.47
NCI-H2347; first compound 2.53 µM
  relative viability: 0.378
NCI-H2347; first compound 8 µM
  relative viability: 0.454
NCI-H358; first compound 0.253 µM
  relative viability: 0.717
NCI-H358; first compound 0.8 µM
  relative viability: 0.815
NCI-H358; first compound 2.53 µM
  relative viability: 0.925
NCI-H358; first compound 8 µM
  relative viability: 0.855
NCI-H650; first compound 0.253 µM
  relative viability: 0.528
NCI-H650; first compound 2.53 µM
  relative viability: 0.577
NCI-H650; first compound 8 µM
  relative viability: 0.472
NCI-H727; first compound 0.253 µM
  relative viability: 0.523
NCI-H727; first compound 0.8 µM
  relative viability: 0.446
NCI-H727; first compound 2.53 µM
  relative viability: 0.609
NCI-H727; first compound 8 µM
  relative viability: 0.562
PC-14; first compound 0.253 µM
  relative viability: 0.791
PC-14; first compound 0.8 µM
  relative viability: 0.853
PC-14; first compound 2.53 µM
  relative viability: 1.2
PC-14; first compound 8 µM
  relative viability: 1.02
RERF-LC-KJ; first compound 0.253 µM
  relative viability: 0.57
RERF-LC-KJ; first compound 0.8 µM
  relative viability: 0.615
RERF-LC-KJ; first compound 2.53 µM
  relative viability: 0.643
RERF-LC-KJ; first compound 8 µM
  relative viability: 0.644
SW 900; first compound 0.253 µM
  relative viability: 0.559
SW 900; first compound 2.53 µM
  relative viability: 0.742
SW 900; first compound 8 µM
  relative viability: 0.532

From the supplement of paper PMC10307832
